Test results taken from US10258073B2, “Functional nutritional blend for thermo-metabolic performance” (priority 2016, dated 2019).

Tested on: Mouse 3T3-L1 pre adipocytes
Experiment: Cell viability by Sulforhodamine B (SRB) assay
Assay type: cell-based
Details: 72 h
Procedure: Cell culture: Mouse immortalised 3T3-L1 pre adipocytes were cultured in 5% CO2 at 37° C. in growth media consisting of Dulbecco's Modified Eagles Medium (DMEM) containing 10% heat-inactivated fetal calf serum with 40 μg/mL of gentamycin 5×10^3 cells were seeded per well in a 96 well plate and allowed to grow as a confluent monolayer.
Mouse 3T3-L1 pre adipocytes were cultured in DMEM containing 10% heat-inactivated foetal calf serum. 5000 cells were seeded in 96 well culture plates and allowed to form adhere and form a monolayer. Test compounds were added at different concentrations and incubated for 72 hours at 37° C. and 5% CO2. Cells were fixed using 10% trichloroacetic acid (TCA) solution at 4° C. for one hour. SRB solution (0.4%) was added to the wells and incubated for 30 minutes at room temperature. Excess dye was washed 5 times with 1% acetic acid. 100 μl of 10 mM trizma base was added to the wells to solubilize the SRB. Absorbance was read using a microplate reader at a wave length of 492 nm. The absorbance of cells with growth media was considered as 100% viable and percentage viability was calculated based on this reading.

Structure (SMILES): O=C(/C=C/C=C/c1ccc2c(c1)OCO2)N1CCCCC1 [Piperine]
- Non-toxic concentration: 25 µg/mL
